Legend:
[1] = biological target: T1, recombinant human ALKBH2 protein (Homo sapiens, UniProt Q6NS38); experiment: α-ketoglutarate competitor test: ALKBH2 repair with varying αKG and fixed Fe; type: biochemical; conditions: for change of repair efficiency with increasing αKG: Fe(II) 10 μM, rhein 50 μM, compound 7 2 μM
T1 sequence (Q6NS38 1-261): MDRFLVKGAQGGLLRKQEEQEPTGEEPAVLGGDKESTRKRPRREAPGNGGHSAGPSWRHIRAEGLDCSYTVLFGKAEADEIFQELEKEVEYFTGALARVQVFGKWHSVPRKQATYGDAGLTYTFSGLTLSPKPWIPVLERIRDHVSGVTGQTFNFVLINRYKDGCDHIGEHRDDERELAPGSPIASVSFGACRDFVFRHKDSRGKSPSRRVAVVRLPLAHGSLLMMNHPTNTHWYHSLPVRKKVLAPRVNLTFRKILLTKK

[2] = biological target: T1, recombinant human ALKBH2 protein; experiment: Fe; type: biochemical; conditions: for change of repair efficiency with increasing Fe(II) ion: rhein 50 μM

| repair efficiency ([1]; 2 μM compound, αKG 50 to 800 μM, Fe(II) kept at 10 μM) | reactivity (repair) ([2]; 5 μM Fe(II) ion, αKG kept at 93 μM) [%] | repair efficiency ([2]; Fe(II) ion concentration increased up to 80 μM, αKG 93 μM, control ~95% repair) | Compound | change of repair efficiency with increasing αKG ([1]; αKG 50 to 800 μM) | change of repair efficiency with increasing Fe(II) ion ([2]; Fe(II) 5 to 80 μM, αKG 93 μM) | repair ratio ([1]; 50 μM rhein, 50 μM αKG, Fe(II) fixed at 10 μM) [%] | repair efficiency ([2]; 50 μM rhein, Fe(II) 5 to 80 μM, αKG fixed at 93 μM) |
| --- | --- | --- | --- | --- | --- | --- | --- |
| ~ 25% | 5 | up to 60% | tannic acid [compound 7] | did not vary significantly | restored in a concentration-dependent manner |  |  |
|  |  |  | O=C(O)c1cc(O)c2c(c1)C(=O)c1cccc(O)c1C2=O [rhein, Rhein, reference compound] | recovered in a concentration-dependent manner | no significant change | 30 | around 36% |
|  |  |  | O=C(OC[C@H]1O[C@@H](OC(=O)c2cc(O)c(O)c(O)c2)[C@H](OC(=O)c2cc(O)c(O)c(O)c2)[C@@H](OC(=O)c2cc(O)c(O)c(O)c2)[C@@H]1OC(=O)c1cc(O)c(O)c(O)c1)c1cc(O)c(O)c(O)c1 [compound 5, pentagalloyl glucose] |  | recovered in a concentration-dependent manner |  |  |
|  |  |  | O=C(O)c1cc(O)c(O)c(O)c1 [compound 2, gallic acid] |  | recovered in a concentration-dependent manner |  |  |
